Data from the NIST ThermoML archive (doi:10.1021/acs.jced.8b00635).
± gives the expanded uncertainty stated by the source.

Assay: activity coefficient (dimensionless); of the first substance listed, at infinite dilution; xn = mol fraction of the nth substance listed
Settings: 101.33 kPa, Liquid, Chromatography, x1 = 0

activity coefficient (323.15 K)	activity coefficient (333.15 K)	activity coefficient (343.15 K)	activity coefficient (353.15 K)	activity coefficient (363.15 K)	activity coefficient (373.15 K)	Structure (SMILES)
24.3 ± 2.6	19.4 ± 2	16.8 ± 1.8	14 ± 1.5	11.1 ± 1.2	9.87 ± 1	C=CCCCCCCCC [1-decene] + CCCCC(CC)CN(CC(CC)CCCC)C(=O)C(C)C
4.02 ± 0.42	2.89 ± 0.3	2.31 ± 0.24	1.8 ± 0.19	1.25 ± 0.13	0.974 ± 0.099	C=CCCCCC [1-heptene] + CCCCC(CC)CN(CC(CC)CCCC)C(=O)C(C)C
4.26 ± 0.45	3.33 ± 0.35	2.6 ± 0.27	2.09 ± 0.22	1.74 ± 0.18	1.29 ± 0.13	CC(C)CC(C)(C)C [2,2,4-trimethylpentane] + CCCCC(CC)CN(CC(CC)CCCC)C(=O)C(C)C
13.8 ± 1.4	10.6 ± 1.1	8.16 ± 0.86	6.2 ± 0.65	5 ± 0.53	4.04 ± 0.42	CCCCCC(C)=O [2-heptanone] + CCCCC(CC)CN(CC(CC)CCCC)C(=O)C(C)C
1.11 ± 0.11	0.938 ± 0.096	0.768 ± 0.079	0.639 ± 0.067	0.525 ± 0.057	0.428 ± 0.049	CCCC(C)C [2-methylpentane] + CCCCC(CC)CN(CC(CC)CCCC)C(=O)C(C)C
8.64 ± 0.91	6.42 ± 0.68	4.88 ± 0.51	3.74 ± 0.39	2.86 ± 0.3	2.15 ± 0.23	CCCC(=O)CC [3-hexanone] + CCCCC(CC)CN(CC(CC)CCCC)C(=O)C(C)C
1.47 ± 0.15	1.21 ± 0.12	1.03 ± 0.1	0.861 ± 0.088	0.718 ± 0.075	0.568 ± 0.061	CC#N [acetonitrile] + CCCCC(CC)CN(CC(CC)CCCC)C(=O)C(C)C
2.56 ± 0.27	2 ± 0.21	1.65 ± 0.17	1.37 ± 0.14	1.15 ± 0.12	0.954 ± 0.097	c1ccccc1 [benzene] + CCCCC(CC)CN(CC(CC)CCCC)C(=O)C(C)C
2.77 ± 0.29	2.15 ± 0.23	1.74 ± 0.18	1.41 ± 0.15	1.18 ± 0.12	0.966 ± 0.098	C1CCCCC1 [cyclohexane] + CCCCC(CC)CN(CC(CC)CCCC)C(=O)C(C)C
26.4 ± 2.8	22.7 ± 2.4	18.3 ± 1.9	15.2 ± 1.6	12.2 ± 1.3	9.89 ± 1	CCCCCCCCCC [decane] + CCCCC(CC)CN(CC(CC)CCCC)C(=O)C(C)C
0.608 ± 0.065	0.506 ± 0.056	0.41 ± 0.048	0.339 ± 0.042	0.273 ± 0.037	0.225 ± 0.034	ClCCl [dichloromethane] + CCCCC(CC)CN(CC(CC)CCCC)C(=O)C(C)C
1.43 ± 0.15	1.22 ± 0.12	0.985 ± 0.1	0.87 ± 0.089	0.7 ± 0.073	0.566 ± 0.061	CCOC(C)=O [ethyl acetate] + CCCCC(CC)CN(CC(CC)CCCC)C(=O)C(C)C
11.3 ± 1.2	8.75 ± 0.92	6.78 ± 0.71	4.96 ± 0.52	3.9 ± 0.41	2.88 ± 0.3	CCc1ccccc1 [ethylbenzene] + CCCCC(CC)CN(CC(CC)CCCC)C(=O)C(C)C
4.37 ± 0.46	3.49 ± 0.37	2.78 ± 0.29	2.32 ± 0.24	2.02 ± 0.21	1.71 ± 0.18	CCCCCCC [heptane] + CCCCC(CC)CN(CC(CC)CCCC)C(=O)C(C)C
1.77 ± 0.18	1.37 ± 0.14	1.17 ± 0.12	0.957 ± 0.097	0.789 ± 0.081	0.678 ± 0.071	C=CCCCC [hex-1-ene] + CCCCC(CC)CN(CC(CC)CCCC)C(=O)C(C)C
1.91 ± 0.2	1.53 ± 0.16	1.26 ± 0.13	1.02 ± 0.1	0.845 ± 0.087	0.717 ± 0.075	CCCCCC [hexane] + CCCCC(CC)CN(CC(CC)CCCC)C(=O)C(C)C
0.056	0.052	0.048	0.044	0.041	0.037	C=O [methanal] + CCCCC(CC)CN(CC(CC)CCCC)C(=O)C(C)C
18.5 ± 1.9	16 ± 1.7	13.7 ± 1.4	11.8 ± 1.2	9.8 ± 1	8.67 ± 0.91	CCCCCCCCC [nonane] + CCCCC(CC)CN(CC(CC)CCCC)C(=O)C(C)C
7.52 ± 0.79	6.09 ± 0.64	4.86 ± 0.51	3.76 ± 0.4	2.94 ± 0.31	2.21 ± 0.23	C=CCCCCCC [oct-1-ene] + CCCCC(CC)CN(CC(CC)CCCC)C(=O)C(C)C
11.9 ± 1.3	8.35 ± 0.88	6.04 ± 0.64	4.54 ± 0.48	3.36 ± 0.35	2.63 ± 0.28	CCCCCCCC [octane] + CCCCC(CC)CN(CC(CC)CCCC)C(=O)C(C)C
0.795 ± 0.082	0.676 ± 0.071	0.544 ± 0.059	0.457 ± 0.051	0.382 ± 0.045	0.324 ± 0.041	CCCCC [pentane] + CCCCC(CC)CN(CC(CC)CCCC)C(=O)C(C)C
17.8 ± 1.9	14.7 ± 1.6	11.5 ± 1.2	9.18 ± 0.97	7.33 ± 0.77	5.72 ± 0.6	CCCc1ccccc1 [propylbenzene] + CCCCC(CC)CN(CC(CC)CCCC)C(=O)C(C)C
1.15 ± 0.12	0.966 ± 0.098	0.746 ± 0.077	0.586 ± 0.063	0.463 ± 0.052	0.372 ± 0.044	ClC(Cl)Cl [trichloromethane] + CCCCC(CC)CN(CC(CC)CCCC)C(=O)C(C)C
39.2 ± 4.1	35.9 ± 3.8	31.5 ± 3.3	27.5 ± 2.9	25.5 ± 2.7	22.7 ± 2.4	CCCCCCCCCCC [undecane] + CCCCC(CC)CN(CC(CC)CCCC)C(=O)C(C)C

Structure (SMILES)	activity coefficient (323.15 K)	activity coefficient (333.15 K)	activity coefficient (343.15 K)	activity coefficient (353.15 K)	activity coefficient (363.15 K)	activity coefficient (373.15 K)
Cc1cccc(C)c1 [1,3-dimethylbenzene] + CCCCC(CC)CN(CC(CC)CCCC)C(=O)C(C)C	11.8 ± 1.2	9.28 ± 0.98	7.2 ± 0.76	5.33 ± 0.56	4.13 ± 0.43	3.14 ± 0.33
Cc1ccc(C)cc1 [1,4-dimethylbenzene] + CCCCC(CC)CN(CC(CC)CCCC)C(=O)C(C)C	11.6 ± 1.2	9.01 ± 0.95	6.9 ± 0.73	5.2 ± 0.55	3.75 ± 0.4	2.89 ± 0.3
CC(C)=O [acetone] + CCCCC(CC)CN(CC(CC)CCCC)C(=O)C(C)C	0.901 ± 0.092	0.745 ± 0.077	0.596 ± 0.064	0.465 ± 0.052	0.375 ± 0.045	0.294 ± 0.039
CCCCc1ccccc1 [butylbenzene] + CCCCC(CC)CN(CC(CC)CCCC)C(=O)C(C)C	24.4 ± 2.6	20.7 ± 2.2	17.5 ± 1.8	15 ± 1.6	12.5 ± 1.3	10.6 ± 1.1
ClC(Cl)(Cl)Cl [tetrachloromethane] + CCCCC(CC)CN(CC(CC)CCCC)C(=O)C(C)C	1.94 ± 0.2	1.6 ± 0.17	1.22 ± 0.13	0.935 ± 0.095	0.727 ± 0.076	0.581 ± 0.062
Cc1ccccc1 [toluene] + CCCCC(CC)CN(CC(CC)CCCC)C(=O)C(C)C	5.11 ± 0.54	4.25 ± 0.45	3.25 ± 0.34	2.5 ± 0.26	1.88 ± 0.2	1.46 ± 0.15
